Results published in ChEMBL document CHEMBL1130760, “Anti-malarial activities of acylated bruceolide derivatives” (Bioorg Med Chem Lett, 1998).
“And” between values parts separate entries of the source, which are not always exact repeats. Identical values can stand only once.

What was measured:
FM3A [1] = test: Cytotoxicity against FM3A cells derived from a mammary tumor in mice was evaluated.; type: functional, cell-based; settings: Mus musculus
Plasmodium falciparum = test: Anti-malarial activity as growth inhibition of chloroquine-resistant Plasmodium falciparum; type: functional, organism-based
FM3A [2] = test: […] was evaluated by the percent viability of cells; type: functional, Mus musculus
FM3A [3] = test: Selective toxicity against Plasmodium falciparum compared to FM3A cytotoxicity; type: functional

Work on CCCCCCCCCC(=O)OC1=C(C)[C@@H]2C[C@H]3OC(=O)[C@H](O)[C@H]4[C@]5(C(=O)OC)OC[C@]34[C@H]([C@@H](O)[C@@H]5O)[C@@]2(C)CC1=O yielded an EC50 (FM3A [1]) of 400 nM and an EC50 (Plasmodium falciparum; Plasmodium falciparum) greater than 1000 nM.

For C/C=C(\C)C(=O)OC1=C(C)[C@@H]2C[C@H]3OC(=O)[C@H](OC(=O)/C(C)=C/C)[C@H]4[C@]5(C(=O)OC)OC[C@]34[C@H]([C@@H](O)[C@@H]5O)[C@@]2(C)CC1=O, the Viability (FM3A [2]) was 100%, the EC50 (FM3A [1]) was greater than 16000 nM and the EC50 (Plasmodium falciparum) was > 1000 nM and 16000 nM.

For COC(=O)[C@@]12OC[C@]34[C@H]([C@@H](O)[C@@H]1O)[C@@]1(C)CC(=O)C(OC(=O)C(N)C(C)C)=C(C)[C@@H]1C[C@H]3OC(=O)[C@H](OC(=O)C(N)C(C)C)[C@@H]24 (some centres undefined), the EC50 (FM3A [1]) was greater than 15000 nM, the EC50 (Plasmodium falciparum; Plasmodium falciparum) was 570 nM and the Ratio (FM3A [3]) was greater than 26.

For COC(=O)[C@@]12OC[C@]34[C@H]([C@@H](O)[C@@H]1O)[C@@]1(C)CC(=O)C(OC(=O)c5ccccc5)=C(C)[C@@H]1C[C@H]3OC(=O)[C@H](OC(=O)c1ccccc1)[C@@H]24, the EC50 (FM3A [1]) was 400 nM and the EC50 (Plasmodium falciparum; Plasmodium falciparum) was greater than 1000 nM.

COC(=O)[C@@]12OC[C@]34[C@H]([C@@H](O)[C@@H]1O)[C@@]1(C)CC(=O)C(OC(C)=O)=C(C)[C@@H]1C[C@H]3OC(=O)[C@H](OC(C)=O)[C@@H]24 showed an EC50 (FM3A [1]) of 16000 nM, an EC50 (Plasmodium falciparum; Plasmodium falciparum) of 39 nM and a Ratio (FM3A [3]) of 410.

With COC(=O)[C@@]12OC[C@]34[C@H]([C@@H](O)[C@@H]1O)[C@@]1(C)CC(=O)C(O)=C(C)[C@@H]1C[C@H]3OC(=O)[C@H](O)[C@@H]24 [BRUCEOLIDE] the EC50 (FM3A [1]) was greater than 21000 nM, the EC50 (Plasmodium falciparum; Plasmodium falciparum) was 1700 nM and the Ratio (FM3A [3]) was greater than 12.3.

Molecule CCCCCCCCCC(=O)OC1=C(C)[C@@H]2C[C@H]3OC(=O)[C@H](OC(=O)CCCCCCCCC)[C@H]4[C@]5(C(=O)OC)OC[C@]34[C@H]([C@@H](O)[C@@H]5O)[C@@]2(C)CC1=O has an EC50 (FM3A [1]) of less than 160 nM and an EC50 (Plasmodium falciparum; Plasmodium falciparum) of 390 nM.

CCCCCC(=O)OC1=C(C)[C@@H]2C[C@H]3OC(=O)[C@H](O)[C@H]4[C@]5(C(=O)OC)OC[C@]34[C@H]([C@@H](O)[C@@H]5O)[C@@]2(C)CC1=O showed an EC50 (FM3A [1]) of 1000 nM and an EC50 (Plasmodium falciparum; Plasmodium falciparum) of 1000 nM.

COC(=O)[C@@]12OC[C@]34[C@H]([C@@H](O)[C@@H]1O)[C@@]1(C)CC(=O)C(OC(=O)/C=C/c5ccccc5)=C(C)[C@@H]1C[C@H]3OC(=O)[C@H](OC(=O)/C=C/c1ccccc1)[C@@H]24 showed an EC50 (FM3A [1]) of less than 150 nM and an EC50 (Plasmodium falciparum; Plasmodium falciparum) of 82 nM.

C/C=C(/C)C(=O)OC1=C(C)[C@@H]2C[C@H]3OC(=O)[C@H](OC(=O)/C(C)=C\C)[C@H]4[C@]5(C(=O)OC)OC[C@]34[C@H]([C@@H](O)[C@@H]5O)[C@@]2(C)CC1=O was tested, and the EC50 (FM3A [1]) was 6000 nM, the EC50 (Plasmodium falciparum; Plasmodium falciparum) was 700 nM and the Ratio (FM3A [3]) was 9.

COC(=O)[C@@]12OC[C@]34[C@H]([C@@H](O)[C@@H]1O)[C@@]1(C)CC(=O)C(OC(=O)C(C)N)=C(C)[C@@H]1C[C@H]3OC(=O)[C@H](OC(=O)C(C)N)[C@@H]24 (some centres undefined) showed an EC50 (FM3A [1]) greater than 16000 nM, an EC50 (Plasmodium falciparum; Plasmodium falciparum) of 1000 nM and a Ratio (FM3A [3]) greater than 16.

In the case of CCC(=O)O[C@H]1C(=O)O[C@@H]2C[C@H]3C(C)=C(O)C(=O)C[C@]3(C)[C@H]3[C@@H](O)[C@H](O)[C@@]4(C(=O)OC)OC[C@]32[C@@H]14, the EC50 (FM3A [1]) is reported as 7000 nM, the EC50 (Plasmodium falciparum; Plasmodium falciparum) is reported as 29 nM and the Ratio (FM3A [3]) is reported as 241.

In the case of CCC(=O)OC1=C(C)[C@@H]2C[C@H]3OC(=O)[C@H](OC(=O)CC)[C@H]4[C@]5(C(=O)OC)OC[C@]34[C@H]([C@@H](O)[C@@H]5O)[C@@]2(C)CC1=O, the EC50 (FM3A [1]) is reported as 6100 nM, the EC50 (Plasmodium falciparum; Plasmodium falciparum) is reported as 35 nM and the Ratio (FM3A [3]) is reported as 174.

In the case of CCCCCCCCCCCCCCCC(=O)OC1=C(C)[C@@H]2C[C@H]3OC(=O)[C@H](OC(=O)CCCCCCCCCCCCCCC)[C@H]4[C@]5(C(=O)OC)OC[C@]34[C@H]([C@@H](O)[C@@H]5O)[C@@]2(C)CC1=O, the Viability (FM3A [2]) is reported as 89.9% and the EC50 (Plasmodium falciparum; Plasmodium falciparum) is reported as 16000 nM.

With CCCCCC(=O)OC1=C(C)[C@@H]2C[C@H]3OC(=O)[C@H](OC(=O)CCCCC)[C@H]4[C@]5(C(=O)OC)OC[C@]34[C@H]([C@@H](O)[C@@H]5O)[C@@]2(C)CC1=O the EC50 (FM3A [1]) was less than 170 nM and the EC50 (Plasmodium falciparum; Plasmodium falciparum) was 98 nM.

In the case of COC(=O)[C@@]12OC[C@]34[C@H]([C@@H](O)[C@@H]1O)[C@@]1(C)CC(=O)C(OC(=O)C(N)Cc5ccccc5)=C(C)[C@@H]1C[C@H]3OC(=O)[C@H](OC(=O)C(N)Cc1ccccc1)[C@@H]24 (some centres undefined), the EC50 (FM3A [1]) is reported as greater than 15000 nM, the EC50 (Plasmodium falciparum; Plasmodium falciparum) is reported as 2800 nM and the Ratio (FM3A [3]) is reported as greater than 5.4.

Work on COC(=O)[C@@]12OC[C@]34[C@H]([C@@H](O)[C@@H]1O)[C@@]1(C)CC(=O)C(O)=C(C)[C@@H]1C[C@H]3OC(=O)[C@H](OC(C)=O)[C@@H]24 [BRUCEINE B] yielded an EC50 (FM3A [1]) of 8000 nM, an EC50 (Plasmodium falciparum; Plasmodium falciparum) of 24 nM and a Ratio (FM3A [3]) of 333.
